Laboratory results: publication PMC6162288, “On-chip spatiotemporal electrophysiological analysis of human stem cell derived cardiomyocytes enables quantitative assessment of proarrhythmia in drug development” (Scientific Reports, 2018)
“And” between values parts separate entries of the source, which are not always exact repeats. Identical values can stand only once. Like-named read-outs stand apart in the source and are kept apart here.

How the values were obtained:
lined-up hESC-CMs = assay: MEA field potential recording of lined-up hESC-CMs (cFPD, CT, their STVs, ISI, beat rate, arrest); format: cell-based, human; details: for BR (beat rate) / Cond. Time (CT) / ISI (inter-spike interval) / STVCT / STVcFPD / cFPD: change vs Ctrl.; for CT: at equivalent concentrations of Nav1.5 IC50
Procedure: Human embryonic stem cell-derived cardiomyocytes clusters (hES-CMCs) were shipped from Cellectis (hES-CMCTM002, hES cell line SA002, Gothenburg, Sweden)[42],[43], and maintained in Dulbecco’s modified Eagle’s medium (DMEM) supplemented 20% heat-inactivated fetal bovaine serum, 1 mM GlutaMax, 100 U/mL penicillin, 0.1 mg/mL streptomycin, 1% nonessential amino acids and 0.1 mM β-mercaptoethanol (Invitrogen, Carsbad, CA, USA). Dispersed cardiomyocytes were isolated from hES-CMCs by a modification of the methods of Norström et al.[44]–[48]. […] The supernatant was gently aspirated with pipette, and a 5-hold volume of DMEM was added as stop solution. Remaining clusters were treats ed with the above process with several times. The supernatants were collected and centrifuged with 200 × g for 2–3 min at 4 °C. The resulting supernatant including dispersed cells was seeded into agarose microchambers on an MEA chip (MED-P530A; AlphaMED scientific. Co. Ltd., Japan)[40].
The MEA chip surface was prepared as follows. First, the chip surface was coated with collagen type I-C (Nitta Gelatin, Japan). After drying, the chip surface was coated with a 0.1% agarose gel. […] At >30 min before the start of experiment, the medium was changed to 2 mL pre-warmed fresh maintenance medium per chip.
Extracellular potential recordings of the lined-up hESC-CMs were performed using the MEA system at a sampling rate of 10 kHz with a low path filter of 2 kHz and high path filter of 1 Hz, and signals were amplified by 100–50,000 using the amplifier. The MEA chip with lined-up hESC-CMs was set in the FP measurement device and placed in a humidified cell culture incubator at 37 °C, 5% CO2. The signals were analyzed by Igor Pro 6.0 (WaveMetrics, Inc., USA) and FlexPro 7.0 (Weisang GmbH, Germany).
We adopted the same drug administration protocol as we examined previously[40] (Fig. 2B). Briefly, the MEA chips of lined-up cells for experiments were selected from the chips having 0.6–1.1 Hz beating frequency and ventricle-like waveforms of FP recordings (see Fig. 1B,D). The MEA chip was placed in the holder of the FP measurement device, and equilibrated for 5 min, and then the control FP waveforms were recorded for 10 min. Subsequently, the drug was applied to the medium at 1% dilution in serially increasing additions, and the FP waveforms were recorded for 10 min at each concentration. Finally, the drug-containing medium was replaced with fresh medium after washing three times. The last 50 beats extracted from 10 min recorded FP waveform data was used for beat rate, FPD (the time from first depolarization peak to broad repolarization peak) and CT (the time difference of the first peaks between separately placed electrodes in lined-upped cell-network) measurement at each concentration (Fig. 2C).
It was normalized (cFPD) to the beating rate of cardiomyocytes using Bazett’s correction formula based on the comparison of the slope of a plot of inter-spike interval and FPD, or corrected FPD by Bazett’s or Fridericia’s formulae (Fig. 3). The short-term variability (STV) of cFPD and CT, which was defined as the mean distance of points perpendicular to the line of identity in the Poincaré plot, was calculated ( STV=∑|D(n+1)−Dn|/(n×2) , where Dn represents the FPD and CT of n-th beating). STVs were last 50 beat data from 5 min extraction of cFPD and CT. To assess the arrhythmogenicity risk of test drugs, the mean values of cFPD, STVcFPD, CT and STVCT of each drug were plotted.

Nav1.5 = details: cited from earlier work
hERG = details: cited from earlier work
Cav1.2 = details: cited from earlier work
[1] = cited from earlier work
[2] = Conc. 10^3 nM (1 μM), listed as astemizole

COc1ccc(CCN2CCC(Nc3nc4ccccc4n3Cc3ccc(F)cc3)CC2)cc1 [Astemizole, astemizole]
BR (beat rate) (lined-up hESC-CMs; Conc. 1 nM): 6.0% | Cond. Time (CT) (lined-up hESC-CMs; Conc. 1 nM): −0.99% | ISI (inter-spike interval) (lined-up hESC-CMs; Conc. 1 nM): −5.4% | STVCT (lined-up hESC-CMs; Conc. 1 nM): 46% | STVcFPD (lined-up hESC-CMs; Conc. 1 nM): −14% | cFPD (lined-up hESC-CMs; Conc. 1 nM): 0.24% | BR (beat rate) (lined-up hESC-CMs; Conc. 10 nM): 6.5% | Cond. Time (CT) (lined-up hESC-CMs; Conc. 10 nM): −3.0% | ISI (inter-spike interval) (lined-up hESC-CMs; Conc. 10 nM): −5.9% | STVCT (lined-up hESC-CMs; Conc. 10 nM): 13% | STVcFPD (lined-up hESC-CMs; Conc. 10 nM): 3.5% | cFPD (lined-up hESC-CMs; Conc. 10 nM): 0.69% | Cond. Time (CT) (lined-up hESC-CMs; Conc. 10^2 nM (0.1 μM)): −1.4% | STVCT (lined-up hESC-CMs; Conc. 10^2 nM (0.1 μM)): 483% | STVcFPD (lined-up hESC-CMs; Conc. 10^2 nM (0.1 μM)): 14% | cFPD (lined-up hESC-CMs; Conc. 10^2 nM (0.1 μM)): 4.4% | STVCT (lined-up hESC-CMs; Conc. 10^2 nM (0.1 μM), listed as astemizole): 483% | BR (beat rate) (lined-up hESC-CMs; Conc. 10^2 nM): 6.1% | ISI (inter-spike interval) (lined-up hESC-CMs; Conc. 10^2 nM): −5.3% | Cond. Time (CT) (lined-up hESC-CMs; Conc. 10^3 nM (1 μM)): 126% | STVCT (lined-up hESC-CMs; Conc. 10^3 nM (1 μM)): 196% | STVcFPD (lined-up hESC-CMs; Conc. 10^3 nM (1 μM)): 122% | cFPD (lined-up hESC-CMs; Conc. 10^3 nM (1 μM)): 43.7% and 44% | STVCT (lined-up hESC-CMs; [2]): 196% | STVcFPD (lined-up hESC-CMs; [2]): 122% | BR (beat rate) (lined-up hESC-CMs; Conc. 10^3 nM): −2.5% | ISI (inter-spike interval) (lined-up hESC-CMs; Conc. 10^3 nM): 3.1% | BR (beat rate) (lined-up hESC-CMs; Conc. 10^−1 nM): 2.0% | ISI (inter-spike interval) (lined-up hESC-CMs; Conc. 10^−1 nM): −1.9% | STVCT (lined-up hESC-CMs; Conc. 10^−1 nM): 46% | STVcFPD (lined-up hESC-CMs; Conc. 10^−1 nM): −2.8% | cFPD (lined-up hESC-CMs; Conc. 10^−1 nM): −0.71% | Cond. Time (CT) (lined-up hESC-CMs; Conc. 10^−1 nM, 150 μm inter-electrode distance): −3.3% | FPD (repolarization index) (lined-up hESC-CMs; at 10 times higher than therapeutic plasma concentrations): […] | CT (lined-up hESC-CMs): increased | IC50 (Nav1.5; read-out: IC50 Nav1.5): 2.2 µM | IC50 (hERG): […] | IC50 (Cav1.2; read-out: IC50 Cav1.2): 0.7 µM | EPTC ([1]; effective therapeutic plasma concentration): 5.5 to 7.9 nM | Unbound ([1]; unbound therapeutic plasma concentration): 0.2 to 0.26 nM

O=C(NCC1CCCCN1)c1cc(OCC(F)(F)F)ccc1OCC(F)(F)F (stereo not shown) [Flecainide, flecainide]
STVcFPD increase (lined-up hESC-CMs; 10–100 μM): about 50% | BR (beat rate) (lined-up hESC-CMs; Conc. 10 nM): 2.6% | Cond. Time (CT) (lined-up hESC-CMs; Conc. 10 nM): −3.2% | ISI (inter-spike interval) (lined-up hESC-CMs; Conc. 10 nM): −2.5% | STVCT (lined-up hESC-CMs; Conc. 10 nM): 7.0% | cFPD (lined-up hESC-CMs; Conc. 10 nM): 0.13% | Cond. Time (CT) (lined-up hESC-CMs; Conc. 10^2 nM (0.1 μM)): 12% | STVCT (lined-up hESC-CMs; Conc. 10^2 nM (0.1 μM)): 61% | STVcFPD (lined-up hESC-CMs; Conc. 10^2 nM (0.1 μM)): −16% | cFPD (lined-up hESC-CMs; Conc. 10^2 nM (0.1 μM)): 3.4% | BR (beat rate) (lined-up hESC-CMs; Conc. 10^2 nM): 3.9% | ISI (inter-spike interval) (lined-up hESC-CMs; Conc. 10^2 nM): −3.7% | Cond. Time (CT) (lined-up hESC-CMs; Conc. 10^3 nM (1 μM)): −0.65% | STVCT (lined-up hESC-CMs; Conc. 10^3 nM (1 μM)): 36% | STVcFPD (lined-up hESC-CMs; Conc. 10^3 nM (1 μM)): 0.32% | cFPD (lined-up hESC-CMs; Conc. 10^3 nM (1 μM)): 1.8% | BR (beat rate) (lined-up hESC-CMs; Conc. 10^3 nM): 4.5% | ISI (inter-spike interval) (lined-up hESC-CMs; Conc. 10^3 nM): −4.2% | Cond. Time (CT) (lined-up hESC-CMs; Conc. 10^4 nM (10 μM)): 64% and 65% | STVCT (lined-up hESC-CMs; Conc. 10^4 nM (10 μM)): 288% | STVcFPD (lined-up hESC-CMs; Conc. 10^4 nM (10 μM)): 41% | cFPD (lined-up hESC-CMs; Conc. 10^4 nM (10 μM)): 0.11% | STVCT (lined-up hESC-CMs; Conc. 10^4 nM (10 μM), listed as flecainide): 287% | BR (beat rate) (lined-up hESC-CMs; Conc. 10^4 nM): 5.1% | ISI (inter-spike interval) (lined-up hESC-CMs; Conc. 10^4 nM): −4.7% | Cond. Time (CT) (lined-up hESC-CMs; Conc. 10^5 nM (100 μM)): −3.6% | STVCT (lined-up hESC-CMs; Conc. 10^5 nM (100 μM)): 263% | STVcFPD (lined-up hESC-CMs; Conc. 10^5 nM (100 μM)): 54% | cFPD (lined-up hESC-CMs; Conc. 10^5 nM (100 μM)): −14% | Arrest (lined-up hESC-CMs; Conc. 10^5 nM, arrest cases/chips): 1/4 | BR (beat rate) (lined-up hESC-CMs; Conc. 10^5 nM): 5.8% | ISI (inter-spike interval) (lined-up hESC-CMs; Conc. 10^5 nM): −5.1% | CT (lined-up hESC-CMs): increased | FPD (lined-up hESC-CMs; up to 100 μM): did not show FPD prolongation | IC50 (Nav1.5; read-out: IC50 Nav1.5): 34 µM | IC50 (Nav1.5; ref Table 1, read-out: Nav1.5 IC50): ~34 µM | IC50 (hERG; read-out: IC50 hERG): 1.8 µM | IC50 (Cav1.2; read-out: Cav1.2 IC50, ref Table 1): 56 µM | IC50 (Cav1.2; read-out: IC50 Cav1.2): 55.9 µM
